Tests used:
[1] = test system: Jurkat T-cell leukemic cells; test: Cell cycle assay (Example 163), G2/M block in Jurkat cells; type: cell-based; conditions: Homo sapiens, Jurkat, 24 h, flow cytometry (PI), Table 2
Description: (§1) MCF-7 breast cancer cells and Jurkat T-cell leukemic cells were grown (and maintained) in EMEM and RPMI media, respectively, containing 10% fetal calf serum.
Test agents were added a concentration of 0.1 μM. Twenty-fours after test agent addition, cells were analyzed for cell cycle status as described below.
(§2) Cell cycle status was analyzed by flow cytometry. Briefly, cells were collected and washed with FACs buffer (Pharmingen) and resuspended and fixed in 1 mL of 80% ethanol for 1 hr. Cells were washed with FACs buffer and resuspended in propidium iodide(PI)/RNase staining buffer (Pharmingen). PI is a fluorescent dye that labels nucleic acids such as DNA. The fluorescence within a cell (in the presence of PI) is proportional to the amount of DNA within a cell. The cell content of DNA is an indices of status in the cell cycle. […] Cells in the S phase have DNA content that lies between these extremes.
(§3) For testing of cell cycle effects of test agents the percentage of cells within the G1 and G2/M phase were measured.

[2] = test system: MCF-7 breast cancer cells; test: Cell cycle assay (Example 163), G2/M block in MCF-7 cells; type: cell-based; conditions: Homo sapiens, MCF7, 24 h, flow cytometry (PI), Table 2
Description: as §1
Cells were allowed to adhere for 24 hrs. After adherence, cell culture media was changed to that containing 0.5% FCS. Thirty minutes post-media change, test compounds were added at a concentration of 1 μM. Twenty-fours after test agent addition, cells were analyzed for cell cycle status as described below.
as §2, §3

| Compound | activation at 0.1 µM [1] [%] | activation at 1 µM [2] [%] |
| --- | --- | --- |
| N#Cc1cc2c(-c3cc(O)cc(Nc4cccnc4)c3)cccc2[nH]1 [4-[3-Hydroxy-5-(pyridin-3-ylamino)-phenyl]-1H-indole-2-carbonitrile] | ≥ 50 | < 50 |
| CC(=O)Nc1cc(C(=O)c2ccncc2)cc(-c2cccc3[nH]ccc23)c1 [N-[3-(1H-Indol-4-yl)-5-(pyridine-4-carbonyl)-phenyl]-acetamide] | ≥ 50 | ≥ 50 |
| Cc1cc(C(=O)c2cc(NS(C)(=O)=O)cc(-c3cccc4[nH]ccc34)c2)cc(Cl)n1 [N-[3-(2-Chloro-6-methyl-pyridine-4-carbonyl)-5-(1H-indol-4-yl)-phenyl]-methanesulfonamide] | ≥ 50 | ≥ 50 |
| CS(=O)(=O)Nc1cc(C(=O)c2cccnc2)cc(-c2cccc3[nH]c(C#N)cc23)c1 [N-[3-(2-Cyano-1H-indol-4-yl)-5-(pyridine-3-carbonyl)-phenyl]-methanesulfonamide] | ≥ 50 | ≥ 50 |
| CC(=O)Nc1cc(SCc2cccnc2)cc(-c2cccc3[nH]ccc23)c1 [N-[3-(1H-Indol-4-yl)-5-(pyridin-3-ylmethylsulfanyl)-phenyl]-acetamide] | < 50 | ≥ 50 |
| O=C(c1cccnc1)c1cc(-c2cccc3[nH]ccc23)ccc1O [[2-Hydroxy-5-(1H-indol-4-yl)-phenyl]-pyridin-3-yl-methanone] | ≥ 50 | ≥ 50 |
| NC(=O)c1ccc(Nc2cc(O)cc(-c3cccc4[nH]ccc34)c2)cn1 [5-[3-Hydroxy-5-(1H-indol-4-yl)-phenylamino]-pyridine-2-carboxylic acid amide] | ≥ 50 | ≥ 50 |
| COc1cc(C(=O)c2cc(N)cc(-c3cccc4[nH]ccc34)c2)ccn1 [[3-Amino-5-(1H-indol-4-yl)-phenyl]-(2-methoxy-pyridin-4-yl)-methanone] | ≥ 50 | ≥ 50 |
| N#Cc1ccc(Nc2cc(O)cc(-c3cccc4[nH]ccc34)c2)cn1 [5-[3-Hydroxy-5-(1H-indol-4-yl)-phenylamino]-pyridine-2-carbonitrile] | ≥ 50 | ≥ 50 |
| O=COCCOCc1ncccc1Nc1cc(O)cc(-c2cccc3[nH]ccc23)c1 [Formic acid 2-{3-[3-hydroxy-5-(1H-indol-4-yl)-phenylamino]-pyridin-2-ylmethoxy}-ethyl ester] | < 50 | ≥ 50 |
| CS(=O)(=O)Nc1cc(Nc2cccnc2)cc(-c2cccc3[nH]ccc23)c1 [N-[3-(1H-Indol-4-yl)-5-(pyridin-3-ylamino)-phenyl]-methanesulfonamide] | < 50 | ≥ 50 |
| Oc1cc(Nc2ccccc2)cc(-c2cccc3[nH]ccc23)c1 [3-(1H-Indol-4-yl)-5-phenylamino-phenol] | ≥ 50 | ≥ 50 |
| NC(=O)c1cc(Nc2cccnc2)cc(-c2cccc3[nH]ccc23)c1 [3-(1H-Indol-4-yl)-5-(pyridin-3-ylamino)-benzamide] | ≥ 50 | ≥ 50 |
| COc1ccc(C(=O)c2cc(O)cc(-c3cccc4[nH]ccc34)c2)cn1 [[3-Hydroxy-5-(1H-Indol-4-yl)-phenyl]-(6-methoxy-pyridin-3-yl)-methanone] | ≥ 50 | ≥ 50 |
| O=C(c1cccnc1)c1cc(-c2cccc3[nH]ccc23)cc(N2CCCC2=O)c1 [1-[3-(1H-Indol-4-yl)-5-(pyridine-3-carbonyl)-phenyl]-pyrrolidin-2-one] | < 50 | ≥ 50 |
| CS(=O)(=O)Nc1cc(C(=O)c2ccnc(Cl)c2)cc(-c2cccc3[nH]ccc23)c1 [N-[3-(2-Chloro-pyridine-4-carbonyl)-5-(1H-indol-4-yl)-phenyl]-methanesulfonamide] | ≥ 50 | ≥ 50 |
| CC(=O)Nc1cc(-c2nc3ncccc3o2)cc(-c2cccc3[nH]ccc23)c1 [N-[3-(1H-Indol-4-yl)-5-oxazolo[4,5-b]pyridin-2-yl-phenyl]-acetamide] | < 50 | ≥ 50 |
| O=C(Nc1cc(C(=O)c2cccnc2)cc(-c2cccc3[nH]ccc23)c1)OCc1ccccc1 [[3-(1H-Indol-4-yl)-5-(pyridine-3-carbonyl)-phenyl]-carbamic acid benzyl ester] | < 50 | ≥ 50 |
| Oc1cc(Nc2cccnc2)cc(-c2cccc3c2OCO3)c1 [3-Benzo[1,3]dioxol-4-yl-5-(pyridin-3-ylamino)-phenol] | ≥ 50 | ≥ 50 |
| COC(=O)Nc1cc(Nc2cccnc2)cc(-c2cccc3[nH]ccc23)c1 [[3-(1H-Indol-4-yl)-5-(pyridin-3-ylamino)-phenyl]-carbamic acid methyl ester] | < 50 | ≥ 50 |
| NC(=O)c1cc(Nc2cnccn2)cc(-c2cccc3[nH]ccc23)c1 [3-(1H-Indol-4-yl)-5-(pyrazin-2-ylamino)-benzamide] | < 50 | ≥ 50 |
| CS(=O)(=O)Nc1cc(C(=O)c2ccncc2)cc(-c2cccc3[nH]ccc23)c1 [N-[3-(1H-Indol-4-yl)-5-(pyridine-4-carbonyl)-phenyl]-methanesulfonamide] | ≥ 50 | ≥ 50 |
| CCC(=O)Nc1cc(C(=O)c2cccnc2)cc(-c2cccc3[nH]ccc23)c1 [N-[3-(1H-Indol-4-yl)-5-(pyridine-3-carbonyl)-phenyl]-propionamide] | < 50 | ≥ 50 |
| CC(=O)Nc1cc(-c2cccc3[nH]ccc23)cc(S(=O)(=O)c2cccnc2)c1 [N-[3-(1H-Indol-4-yl)-5-(pyridine-3-sulfonyl)-phenyl]-acetamide] | < 50 | ≥ 50 |
| COc1cc(C(=O)c2cc(NC(C)=O)cc(-c3cccc4[nH]ccc34)c2)ccn1 [N-[3-(1H-Indol-4-yl)-5-(2-methoxy-pyridine-4-carbonyl)-phenyl]-acetamide] | ≥ 50 | ≥ 50 |
| O=C(c1cccnc1)c1cc(O)cc(-n2ccc3cc(F)ccc32)c1 [[3-(5-Fluoro-indol-1-yl)-5-hydroxy-phenyl]-pyridin-3-yl-methanone] | ≥ 50 | ≥ 50 |
| CC(=O)Nc1cc(C(=O)c2ccnc(Cl)c2)cc(-c2cccc3[nH]ccc23)c1 [N-[3-(2-Chloro-pyridine-4-carbonyl)-5-(1H-indol-4-yl)-phenyl]-acetamide] | ≥ 50 | ≥ 50 |
| CC(=O)Nc1cc(Br)cc(C(=O)c2cccnc2)c1 [N-[3-Bromo-5-(pyridine-3-carbonyl)-phenyl]-acetamide] | ≥ 50 | ≥ 50 |
| COC(=O)c1cc(Nc2cccnc2)cc(-c2cccc3[nH]ccc23)c1 [3-(1H-Indol-4-yl)-5-(pyridin-3-ylamino)-benzoic acid methyl ester] | ≥ 50 | ≥ 50 |
